Results as given in paper PMC8566451, “Lead optimization of novel quinolone chalcone compounds by a structure–activity relationship (SAR) study to increase efficacy and metabolic stability” (Scientific Reports, 2021).
Like-named read-outs stand apart in the source and are kept apart here.

Assays:
[1] = system: cancer cell lines (breast cancer, melanoma, cervical cancer); experiment: SRB assay, average GI50 over cancer cell lines; type: cell-based; conditions: for fold decrease in GI50 relative to CTR-17: average GI50 compared with CTR-17
Experimental: (§1) The SRB assay was used to assess drug-induced cytotoxicity and cell proliferation as previously described[2],[33],[34] with a few modifications. Briefly, cells were plated 10,000 to 25,000 cells/cm^2 in 96-well plates (100 µl medium) and allowed to adhere overnight. The cell counts were different for each cell line to ensure optimal cell growth for the duration of the assay. Eight different concentrations of compound solutions using 2–4 times serial dilutions (100 µl). Cells were then incubated for an additional 48 h and then fixed with 100 µl ice-cold 10% (w/v) trichloroacetic acid (TCA) (without removing the cell medium, final concentration, 3.3% of TCA) and stained with 0.4% SRB (w/v) in 1% acetic acid (v/v). The relative growth rate (%) was calculated for each of the compound concentrations according to the following formula: 100 * (T − T0)/(C − T0), in which T is the optical density (OD) after exposure to a certain concentration of the compound after 48 h, T0 is the OD at the start of drug exposure (time zero) and C is the control growth. The GI50 for each compound was obtained from a non-linear sigmoidal dose–response (variable slope) curve fitted by GraphPad Prism v.4.03 software.

[2] = target: tubulin (colchicine binding site) (Sus scrofa, UniProt P02550+P02554); experiment: Colchicine binding site competition assay (fluorescence of tubulin-colchicine complex, modified Dixon plot); conditions: for Ki / mode of inhibition of colchicine binding: modified Dixon plot; for mode of inhibition of colchicine binding: trendlines intersect above the X-axis
Experimental: (a) CTR-21 and CTR-32 inhibit microtubule polymerization in vitro. Spontaneous polymerization of 20 µM porcine tubulin was initiated with the addition of 1 mmol/L GTP at 37 °C and monitored every minute for 60 min in the presence of the indicated concentration of CTR-21, CTR-32, nocodazole, paclitaxel, or a DMSO vehicle control. To make the graph simpler, only 3 µM concentration is shown. The effects of higher doses are shown in Supplemental Fig. S9. […] Fluorescent intensity was compared to the fluorescence of the tubulin-colchicine complex in absence of CTR-21 or CTR-32 (F0). […] A modified Dixon plot was used to determine the inhibitory concentration of CTR-21 and CTR-32 (Ki).
When we added either CTR-21 or CTR-32 to the colchicine-tubulin complex, we observed a reduction in fluorescence in a dose -dependent manner (Fig. 2b).
Microtubule assembly was assessed using a Tubulin Polymerization assay kit (BK011P; Cytoskeleton Inc., Denver, CO). 20 µM of purified porcine tubulin proteins (> 99% purity) were suspended in G-PEM buffer containing 80 mM PIPES, 2 mM MgCl2, 0.5 mM EGTA, 1 mM GTP (pH 6.9) and 20% glycerol. Polymerization was started by incubating at 37 °C and followed by absorbance readings every 1 min at 340 nm for 1 h using a Synergy H4 plate reader.

[3] = system: NCI-60 panel of cancer cell lines; experiment: NCI-60 panel, SRB colorimetric assay; type: cell-based; conditions: 10 μM single dose and five dose data (Supplemental Figs. S1–S8)
Experimental: Supplementa ry Figure l egend
Supplementary Figures S 1- S4.CTR -21 effectivel y prev ent proliferation o f a rep resent ative set […]
of cancer cell lines (NC I-60 panel). Fi gu re S 1: 10 μM of CTR -21 was used against the panel of […]
NC I-60 cancer cell lines including: six leukemia cell lines, nine non-small cell lung cancer cell […]
lines, seven colorectal cancer cell lines, six CNS cancer cell lines, nine mel anoma cell lines, seven ovari an can cer cell lines, seven ren al can cer cell lines, two prostate cancer cell lines and six breast cancer cell lines, utilizing the sulforhodamine B (SRB) colorimetric assa y. Fi gu re S 2- […]
S4: Five dose data for CTR-21.
Supplementary Figures S 5- S8.CTR -32effectivel y prev ent s prolifer ation of a rep resent ative set […]
of cancer cell lines (NC I-60 panel). Fi gu re S 5: 10 μM of CTR -32 was used against the panel of […]
six breast cancer cell lines, utilizing the sulforhodamine B (SRB) colorimetric assa y. Fi gu re S 6- […]
S8: Five dose data for CTR-32.
Supplementa ry Figure S9.CTR -21 and CTR-32 inhibit microtubule pol ymerization in vitro .
Spontaneous pol ymerizat ion of 20µM porcine tubulin was initiated with the addition of 1 […]
mmol/L GTP at 37°C and monitored ever y minut e for 60 minutes in the presence of the […]
indicated concentration of CTR-21, CTR-32, nocodazole, paclitaxel, or a DMSO vehicle […]

[4] = system: primary human epidermal melanocytes; experiment: GI50 on primary skin cells; type: cell-based; conditions: for GI50: Homo sapiens, Melanocyte, primary skin cells; for Selectivity Index (primary skin cells): primary melanocytes versus average GI50 of cancer cells
Experimental: The human MDA-MB-231, MCF7, MDA-MB-468, RPMI-8226 and HeLa cell lines were purchased from ATCC and maintained in Dulbecco's Modified Eagle Medium (DMEM)—high glucose supplemented with 10% fetal bovine serum (FBS) and antibiotics/antimycotics. Cell line authentication was carried out by Genetica DNA Laboratories (Burlington, NC) using a short tandem repeat (STR) profiling method (March 2015; July 2015; September 2016). Melanoma cells E-055 (MZ-Mel-3), E-097 (Mel-SOE), E-112 (UKRV-Mel-38), E-157 (UKRV-Mel-17) were obtained from the European Searchable Tumour Line Database (ESTDAB) cell bank (a kind gift of Dr. Graham Pawelec, Tubingen University, Germany). MDA-MB-435 was purchased from the Division of Cancer Treatment and Diagnosis Tumor Repository. All melanoma cells were cultured in Roswell Park Memorial Institute (RPMI) medium supplemented with 10% FBS and P/S/antimycotics. Primary human epidermal melanocytes from normal adult abdominal skin were purchased from ATCC (cat # PCS-200–013) and Cell Applications (cat#104-05a). The melanocytes were cultured in the media supplied by the companies.
as §1

[5] = Microsome metabolism assay; type: in vitro ADME, human; conditions: for half-life at 5 µM: human microsomes (20 mg/ml protein), NADPH, 120 min
Experimental: (a) CTR-21 is much more metabolically stable than CTR-32. 5 µM of CTR-21 or CTR-32 were incubated with human microsomes (20 mg/ml protein) in the presence of NADPH over the course of 120 min. The lysates were analyzed and % remaining CTR compounds were identified and estimated using HPLC–MS. (b) Summary of structure–activity relationship (SAR) based on activity and metabolic stability.
Microsome metabolism assay was carried out as per manufacturer protocol (ThermoFisher), with 5 µM of starting compound. Analytes were measured on a Waters Xevo G2-XS Quadrupole Time-of-Flight mass spectrometer. Half-life was calculated using exponential one phase decay (GraphPad Prism 5). Hydroxychloroquine was used as an internal standard (500 pg/µL).

[6] = Table 1 and Supplemental Table S1 cell lines, read-out: GI50 range over the cancer cell lines
[7] = average over the cell lines of Table 1 or Supplemental Table S1, read-out: average GI50
[8] = Melanocytes #1, read-out: GI50 Melanocytes #1
[9] = Melanocytes #2, read-out: GI50 Melanocytes #2

SMILES	SI, cancer over normal cells [1]	enhancement of potency over CTR-17 and CTR-20 [1]	GI50 [1, 6]	fold decrease in GI50 relative to CTR-17 [1]	GI50 [1, 7]	strength of inhibition relative to CTR-32 (Ki ratio) ([2]; CTR-21 versus CTR-32)	Ki [2]	mode of inhibition of colchicine binding [2]	activity against NCI-60 panel [3]	GI50 [4, 8]	GI50 [4, 9]	Selectivity Index (primary skin cells) [4]	half-life at 5 µM [5]	half-life relative to CTR-32 ([5]; human microsomes)
COc1ccccc1C(=O)/C=C/c1cc2cccc(OC)c2[nH]c1=O [CTR-21, (E)-8-methoxy-3-(3-(2-methoxyphenyl)-3-oxoprop-1-enyl) quinolin-2(1H)-one]	> 100 fold	~ 30 fold	5 to 91 nM	31 fold	16.4 nM	about 4.9 times	1.47 µM	competitive inhibitors	highly effective	2090 ± 804 nM	3050 ± 960 nM	157	65.2 min	almost five times greater
CCOc1ccccc1C(=O)/C=C/c1cc2ccccc2[nH]c1=O [CTR-32, (E)-3-(3-(2-ethoxyphenyl)-3-oxoprop-1-enyl)quinolin-2(1H)-one]	–	–	5 to 91 nM	23 fold	20 nM	–	7.2 µM	competitive inhibitors	highly effective	2630 ± 782 nM	3630 ± 1080 nM	158	13.7 min	–
